The source of these data is US8314143B2, “Synthetic flavonoids and pharmaceutical compositions and therapeutic methods of treatment of HIV infection and other pathologies” (Florida A&M University, priority 2006, dated 2012).

Type in all cases: cell-based
One experiment has as its system PC-3 cells. Nature of the experiment: Cytoxicity on PC-3 cells (drug inhibition, cell count). As to conditions: same conditions as AZT. The source says: The purified and identified analogs were subjected to in vitro biological testing.
A further experiment relates to MCF-7 cells. Nature of the experiment: Cytoxicity on MCF-7 cells (drug inhibition, cell count). The following applies: for inhibition at 1 µg/mL / inhibition at 5 µg/mL / inhibition at 10 µg/mL / inhibition at 50 µg/mL: Homo sapiens, MCF7, MCF-7 cells; for inhibition at 1 µg/mL / inhibition at 5 µg/mL / inhibition at 10 µg/mL / inhibition at 50 µg/mL / % Inhibition: vs 2% DMSO; for Cells (×10^4): single replicate count. The source says: (§1) The purified and identified analogs were subjected to in vitro biological testing. […] These three congeners were further evaluated in H9 and PC3 cells. AZT was employed as a positive control in all of these experiments.

The test system of another experiment is H-9 cells. Nature of the experiment: Cytoxicity on H-9 cells (drug inhibition, cell count). As to conditions: same conditions as AZT.
Text: as §1

By inhibition is commonly meant the change of the read-out against control, counted positive when it falls. Usually % Inhibition stands for the change of the read-out against control, counted positive when it falls.

Where “and” joins values, the source holds several entries; their conditions need not be identical. Equal entries are not always repeated. Where two headings read alike, the source gives them in different places.

Take `COc1cc(C=CC(=O)c2cc(C)cc([N+](=O)[O-])c2O)cc(OC)c1OC` [CHNM 3M]: the “inhibitory activity compared to AZT” value is on record as “much superior inhibitory activities” in the experiment with PC-3 cells; “much superior inhibitory activities” in the experiment on MCF-7 cells (MCF-7 cells, same conditions as AZT); “much superior inhibitory activities” with H-9 cells. Also, the inhibition at 1 µg/mL was found to be 12.6% in the experiment on MCF-7 cells (drug 1 μg/ml, mean of replicates, read-out: % Inhibition Mean) and 13.1% in the experiment on MCF-7 cells (drug 1 μg/ml, single replicate, read-out: % Inhibition). For the same compound, the inhibition at 5 µg/mL with MCF-7 cells (drug 5 μg/ml, mean of replicates, read-out: % Inhibition Mean) is 51.4%; with MCF-7 cells (drug 5 μg/ml, single replicate, read-out: % Inhibition), 49.4%. Besides, the inhibition at 10 µg/mL is 90.3% with MCF-7 cells (drug 10 μg/ml, mean of replicates, read-out: % Inhibition Mean) and 90.2% with MCF-7 cells (drug 10 μg/ml, single replicate, read-out: % Inhibition). In addition, the inhibition at 50 µg/mL stood at 96.6% with MCF-7 cells (drug 50 μg/ml, mean of replicates, read-out: % Inhibition Mean) and 96.6% with MCF-7 cells (drug 50 μg/ml, single replicate, read-out: % Inhibition). Moreover, the “response to MCF-7 cells in the different drug concentrations” value with MCF-7 cells (MCF-7 cells) was “good activities”. In addition, the “Cells (×10^4) Mean” value in the experiment with MCF-7 cells (MCF-7 cells, drug 1 μg/ml, mean of replicates) was 44.50 ×10^4; in the experiment on MCF-7 cells (MCF-7 cells, drug 5 μg/ml, mean of replicates), 24.75 ×10^4; with MCF-7 cells (MCF-7 cells, drug 10 μg/ml, mean of replicates), 4.92 ×10^4; with MCF-7 cells (MCF-7 cells, drug 50 μg/ml, mean of replicates), 1.75 ×10^4. The “Cells (×10^4)” value with MCF-7 cells (MCF-7 cells, drug 1 μg/ml) is 44.3 ×10^4 (2×) and 45.0 ×10^4; with MCF-7 cells (MCF-7 cells, drug 5 μg/ml), 25.8 ×10^4 and 24.0 ×10^4 and 24.5 ×10^4; with MCF-7 cells (MCF-7 cells, drug 10 μg/ml) it was 5.0 ×10^4 (2×) and 4.8 ×10^4; with MCF-7 cells (MCF-7 cells, drug 50 μg/ml), 1.8 ×10^4 and 2.0 ×10^4 and 1.5 ×10^4. The “% Inhibition” value in the experiment on MCF-7 cells (MCF-7 cells, drug 1 μg/ml, single replicate) was 11.62%; in the experiment with MCF-7 cells (MCF-7 cells, drug 5 μg/ml, single replicate), 52.86% and 51.88%; in the experiment with MCF-7 cells (MCF-7 cells, drug 10 μg/ml, single replicate), 90.67%; with MCF-7 cells (MCF-7 cells, drug 50 μg/ml, single replicate) it was 96.07% and 97.05%.
